# Tested on: test plant species
# Assay: Post-emergent herbicidal activity test (greenhouse, foliar spray, visual growth reduction)
# Type: in vivo
# Details: post-emergence, 336 h, ECHCG: barnyardgrass (Echinochloa crus-galli), 140 g ai/ha, 14 days after application, read-out: Visual Growth Reduction (%) 14 Days After Application, ECHCG
# Protocol: Post-emergent Test: Seeds or nutlets of the desired test plant species were planted in Sun Gro Metro-Mix® 360 planting mixture, which typically has a pH of 6.0 to 6.8 and an organic matter content of about 30 percent, in plastic pots with a surface area of 64 square centimeters. In some aspects, to ensure good germination and healthy plants, a fungicide treatment and/or other chemical or physical treatment was applied. The plants were grown for 7-21 d in a greenhouse with an approximate 15 h photoperiod which was maintained at 23-29° C. during the day and 22-28° C. during the night. Nutrients and water were added on a regular basis and supplemental lighting was provided with overhead metal halide 1000-Watt lamps as necessary. Plants were used for testing when they reached the first or second true leaf stage. A weighed amount, determined by the highest rate to be tested, of each test compound was placed in a 25 mL glass vial and was dissolved in 4 mL of a 97:3 v/v mixture of acetone and DMSO to obtain concentrated stock solutions. […] The concentrated stock solutions obtained were diluted with 20 mL of an aqueous mixture containing acetone, water, isopropyl alcohol, DMSO, […] crop oil concentrate, and X-77 surfactant in a 48.5:39:10:1.5:1.0:0.02 v/v ratio to obtain spray solutions containing the application rate. Compound requirements are based upon a 12 mL application volume at a rate of 187 liters per hectare (L/ha). Formulated compounds were applied to the plant material with an overhead Mandel track sprayer equipped with […] nozzles calibrated to deliver 187 L/ha over an application area of 0.64 square meters at a spray height of 18 inches (43 cm) above the average plant canopy height. Control plants were sprayed in the same manner with the solvent blank. The treated plants and control plants were placed in a greenhouse as described above and watered by subirrigation to prevent wash-off of the test compounds. After 14 d, the condition of the test plants as compared with that of the nontreated and control plants was determined visually and scored on a scale of 0 to 100 percent where 0 corresponds to no injury and 100 corresponds to complete control. In the reporting of the results, Table A: Percent Growth Reduction Conversion Table was used.
row,SMILES,pest or weed control at 140 g/ha
1,"CCCCOC(=O)c1nc(-c2ccc(Cl)c(OC)c2F)ccc1Cl [F280, Butyl 3-chloro-6-(4-chloro-2-fluoro-3-methoxyphenyl) picolinate]",0 to 29%
2,"CCCCOC(=O)c1nc(-c2ccc(Br)c(OC)c2F)ccc1Cl [F283, Butyl 6-(4-bromo-2-fluoro-3-methoxyphenyl)-3-chloropicolinate]",0 to 29%

# Same assay, conditions: post-emergence, 336 h, IPOHE: ivy-leaf morning glory (Ipomoea hederacea), 140 g ai/ha, 14 days after application, read-out: Visual Growth Reduction (%) 14 Days After Application, IPOHE
row,SMILES,pest or weed control at 140 g/ha
1,"CCCCOC(=O)c1nc(-c2ccc(Cl)c(OC)c2F)ccc1Cl [F280, Butyl 3-chloro-6-(4-chloro-2-fluoro-3-methoxyphenyl) picolinate]",30 to 44%
2,"CCCCOC(=O)c1nc(-c2ccc(Br)c(OC)c2F)ccc1Cl [F283, Butyl 6-(4-bromo-2-fluoro-3-methoxyphenyl)-3-chloropicolinate]",0 to 29%

# Same assay, conditions: post-emergence, 336 h, KCHSC: kochia (Bassia scoparia), 140 g ai/ha, 14 days after application, read-out: Visual Growth Reduction (%) 14 Days After Application, KCHSC
row,SMILES,pest or weed control at 140 g/ha
1,"CCCCOC(=O)c1nc(-c2ccc(Cl)c(OC)c2F)ccc1Cl [F280, Butyl 3-chloro-6-(4-chloro-2-fluoro-3-methoxyphenyl) picolinate]",60 to 74%
2,"CCCCOC(=O)c1nc(-c2ccc(Br)c(OC)c2F)ccc1Cl [F283, Butyl 6-(4-bromo-2-fluoro-3-methoxyphenyl)-3-chloropicolinate]",75 to 84%

# Same assay, conditions: post-emergence, 336 h, ORYSA: rice (Oryza sativa), 140 g ai/ha, 14 days after application, read-out: Visual Growth Reduction (%) 14 Days After Application, ORYSA
row,SMILES,pest or weed control at 140 g/ha
1,"CCCCOC(=O)c1nc(-c2ccc(Cl)c(OC)c2F)ccc1Cl [F280, Butyl 3-chloro-6-(4-chloro-2-fluoro-3-methoxyphenyl) picolinate]",0 to 29%
2,"CCCCOC(=O)c1nc(-c2ccc(Br)c(OC)c2F)ccc1Cl [F283, Butyl 6-(4-bromo-2-fluoro-3-methoxyphenyl)-3-chloropicolinate]",0 to 29%

# Same assay, conditions: post-emergence, 336 h, SETFA: giant foxtail (Setaria faberi), 140 g ai/ha, 14 days after application, read-out: Visual Growth Reduction (%) 14 Days After Application, SETFA
row,SMILES,pest or weed control at 140 g/ha
1,"CCCCOC(=O)c1nc(-c2ccc(Cl)c(OC)c2F)ccc1Cl [F280, Butyl 3-chloro-6-(4-chloro-2-fluoro-3-methoxyphenyl) picolinate]",0 to 29%
2,"CCCCOC(=O)c1nc(-c2ccc(Br)c(OC)c2F)ccc1Cl [F283, Butyl 6-(4-bromo-2-fluoro-3-methoxyphenyl)-3-chloropicolinate]",0 to 29%

# Same assay, conditions: post-emergence, 336 h, SORVU: grain sorghum (Sorghum vulgare), 140 g ai/ha, 14 days after application, read-out: Visual Growth Reduction (%) 14 Days After Application, SORVU
row,SMILES,pest or weed control at 140 g/ha
1,"CCCCOC(=O)c1nc(-c2ccc(Cl)c(OC)c2F)ccc1Cl [F280, Butyl 3-chloro-6-(4-chloro-2-fluoro-3-methoxyphenyl) picolinate]",0 to 29%
2,"CCCCOC(=O)c1nc(-c2ccc(Br)c(OC)c2F)ccc1Cl [F283, Butyl 6-(4-bromo-2-fluoro-3-methoxyphenyl)-3-chloropicolinate]",0 to 29%

# Same assay, conditions: post-emergence, 336 h, STEME: common chickweed (Stellaria media), 140 g ai/ha, 14 days after application, read-out: Visual Growth Reduction (%) 14 Days After Application, STEME
row,SMILES,pest or weed control at 140 g/ha
1,"CCCCOC(=O)c1nc(-c2ccc(Cl)c(OC)c2F)ccc1Cl [F280, Butyl 3-chloro-6-(4-chloro-2-fluoro-3-methoxyphenyl) picolinate]",0 to 29%
2,"CCCCOC(=O)c1nc(-c2ccc(Br)c(OC)c2F)ccc1Cl [F283, Butyl 6-(4-bromo-2-fluoro-3-methoxyphenyl)-3-chloropicolinate]",0 to 29%

# Same assay, conditions: post-emergence, 336 h, TRZAS: wheat, spring (Triticum aestivum), 140 g ai/ha, 14 days after application, read-out: Visual Growth Reduction (%) 14 Days After Application, TRZAS
row,SMILES,pest or weed control at 140 g/ha
1,"CCCCOC(=O)c1nc(-c2ccc(Cl)c(OC)c2F)ccc1Cl [F280, Butyl 3-chloro-6-(4-chloro-2-fluoro-3-methoxyphenyl) picolinate]",0 to 29%
2,"CCCCOC(=O)c1nc(-c2ccc(Br)c(OC)c2F)ccc1Cl [F283, Butyl 6-(4-bromo-2-fluoro-3-methoxyphenyl)-3-chloropicolinate]",0 to 29%

# Same assay, conditions: post-emergence, 336 h, blackgrass (Alopecurus myosuroides), 14 Days After Application, 140 g ai/ha, read-out: Visual Growth Reduction (%) ALOMY
row,SMILES,pest or weed control at 140 g/ha
1,"CCCCOC(=O)c1nc(-c2ccc(Cl)c(OC)c2F)ccc1Cl [F280, Butyl 3-chloro-6-(4-chloro-2-fluoro-3-methoxyphenyl) picolinate]",0 to 29%
2,"CCCCOC(=O)c1nc(-c2ccc(Br)c(OC)c2F)ccc1Cl [F283, Butyl 6-(4-bromo-2-fluoro-3-methoxyphenyl)-3-chloropicolinate]",0 to 29%

# Same assay, conditions: post-emergence, 336 h, canada thistle (Cirsium arvense), 14 Days After Application, 140 g ai/ha, read-out: Visual Growth Reduction (%) CIRAR
row,SMILES,pest or weed control at 140 g/ha
1,"CCCCOC(=O)c1nc(-c2ccc(Cl)c(OC)c2F)ccc1Cl [F280, Butyl 3-chloro-6-(4-chloro-2-fluoro-3-methoxyphenyl) picolinate]",30 to 44%
2,"CCCCOC(=O)c1nc(-c2ccc(Br)c(OC)c2F)ccc1Cl [F283, Butyl 6-(4-bromo-2-fluoro-3-methoxyphenyl)-3-chloropicolinate]",85 to 94%

# Same assay, conditions: post-emergence, 336 h, crabgrass (Digitaria sanguinalis), 14 Days After Application, 140 g ai/ha, read-out: Visual Growth Reduction (%) DIGSA
row,SMILES,pest or weed control at 140 g/ha
1,"CCCCOC(=O)c1nc(-c2ccc(Cl)c(OC)c2F)ccc1Cl [F280, Butyl 3-chloro-6-(4-chloro-2-fluoro-3-methoxyphenyl) picolinate]",0 to 29%
2,"CCCCOC(=O)c1nc(-c2ccc(Br)c(OC)c2F)ccc1Cl [F283, Butyl 6-(4-bromo-2-fluoro-3-methoxyphenyl)-3-chloropicolinate]",0 to 29%

# Same assay, conditions: post-emergence, 336 h, lambsquarters (Chenopodium album), 14 Days After Application, 140 g ai/ha, read-out: Visual Growth Reduction (%) CHEAL
row,SMILES,pest or weed control at 140 g/ha
1,"CCCCOC(=O)c1nc(-c2ccc(Cl)c(OC)c2F)ccc1Cl [F280, Butyl 3-chloro-6-(4-chloro-2-fluoro-3-methoxyphenyl) picolinate]",85 to 94%
2,"CCCCOC(=O)c1nc(-c2ccc(Br)c(OC)c2F)ccc1Cl [F283, Butyl 6-(4-bromo-2-fluoro-3-methoxyphenyl)-3-chloropicolinate]",85 to 94%

# Same assay, conditions: post-emergence, 336 h, redroot pigweed (Amaranthus retroflexus), 14 Days After Application, 140 g ai/ha, read-out: Visual Growth Reduction (%) AMARE
row,SMILES,pest or weed control at 140 g/ha
1,"CCCCOC(=O)c1nc(-c2ccc(Cl)c(OC)c2F)ccc1Cl [F280, Butyl 3-chloro-6-(4-chloro-2-fluoro-3-methoxyphenyl) picolinate]",30 to 44%
2,"CCCCOC(=O)c1nc(-c2ccc(Br)c(OC)c2F)ccc1Cl [F283, Butyl 6-(4-bromo-2-fluoro-3-methoxyphenyl)-3-chloropicolinate]",30 to 44%

# Same assay, conditions: post-emergence, 336 h, wild oat (Avena fatua), 14 Days After Application, 140 g ai/ha, read-out: Visual Growth Reduction (%) AVEFA
row,SMILES,pest or weed control at 140 g/ha
1,"CCCCOC(=O)c1nc(-c2ccc(Cl)c(OC)c2F)ccc1Cl [F280, Butyl 3-chloro-6-(4-chloro-2-fluoro-3-methoxyphenyl) picolinate]",0 to 29%
2,"CCCCOC(=O)c1nc(-c2ccc(Br)c(OC)c2F)ccc1Cl [F283, Butyl 6-(4-bromo-2-fluoro-3-methoxyphenyl)-3-chloropicolinate]",0 to 29%

# Same assay, conditions: post-emergence, 336 h, yellow nutsedge (Cyperus esculentus), 14 Days After Application, 140 g ai/ha, read-out: Visual Growth Reduction (%) CYPES
row,SMILES,pest or weed control at 140 g/ha
1,"CCCCOC(=O)c1nc(-c2ccc(Cl)c(OC)c2F)ccc1Cl [F280, Butyl 3-chloro-6-(4-chloro-2-fluoro-3-methoxyphenyl) picolinate]",60 to 74%
2,"CCCCOC(=O)c1nc(-c2ccc(Br)c(OC)c2F)ccc1Cl [F283, Butyl 6-(4-bromo-2-fluoro-3-methoxyphenyl)-3-chloropicolinate]",30 to 44%

# — patent publication US20230017045A1, “PYRIDINE AND PYRIMIDINE CARBOXYLATE HERBICIDES AND METHODS OF USE THEREOF” (Dow AgroSciences LLC, priority 2017, published 2023)
